For the assay, the target named is T1, FLuc-C-HiBiT (Photinus pyralis, UniProt P08659).
T1 construct: firefly luciferase with C-terminal HiBiT tag, E. coli expressed
Nature of the assay: biochemical. As to conditions: enzyme activity, 10 uM ATP; read-out: IC50 or SDR50 (mM) / FLuc E. As to the method:
The enzyme activity of FLuc-N-HiBiT, FLuc-C-HiBiT, and FLuc-C-NLuc was measured similar to P. pyralis firefly luciferase (FLuc) as previously described. […] Compounds and controls were added to each plate as described in Supplementary Data 8 with a Hornet pintool system (Wako Automation). Compounds were incubated with respective enzymes for 30–60 min at room temperature protected from light and covered by solid metal lid to prevent evaporation. […] Luciferin was incubated with FLuc enzyme for 5 min before FLuc activity was then measured on a ViewLux CCD imager (PerkinElmer), with exposure times up to ten seconds with medium to high gain settings. Data were normalized to average no enzyme control as 100% enzyme inhibition and average DMSO neutral control. See Supplementary Table 4 for additional details. As a proof-of-concept target, we appended the sensor protein or corresponding α-peptide to either the N- or C-terminus of the target protein firefly luciferase (FLuc), an ATP cofactor-dependent monooxygenase (Supplementary Fig. 1a) having a broad, well-characterized and accessible ligand pharmacology. For initial characterization of the SDR concept, either NLuc or the 11 amino acid HiBiT tag (α-peptide) and complementary 18 kDa LgBiT subunit (ω-fragment), which self-assemble to reconstitute functional NLuc enzyme[24] were tested. In contrast to the ATP-dependent bioluminescent FLuc enzyme, NLuc generates a bright bioluminescence in an ATP-independent manner from the direct oxidation of furimazine (Supplementary Fig. 1b). […] Next, FLuc-C-NLuc, FLuc-N-HiBiT or FLuc-C-HiBiT were assayed with the same inhibitor in an SDR assay format by monitoring bioluminescence from NLuc or its reconstitution by α-complementation with LgBiT. Measurements of NLuc activity were made either in the absence or presence of the FLuc ATP cofactor, as NLuc bioluminescence is ATP-independent.

Each structure is given as a SMILES string.

T1 sequence (P08659 whole entry, looked up): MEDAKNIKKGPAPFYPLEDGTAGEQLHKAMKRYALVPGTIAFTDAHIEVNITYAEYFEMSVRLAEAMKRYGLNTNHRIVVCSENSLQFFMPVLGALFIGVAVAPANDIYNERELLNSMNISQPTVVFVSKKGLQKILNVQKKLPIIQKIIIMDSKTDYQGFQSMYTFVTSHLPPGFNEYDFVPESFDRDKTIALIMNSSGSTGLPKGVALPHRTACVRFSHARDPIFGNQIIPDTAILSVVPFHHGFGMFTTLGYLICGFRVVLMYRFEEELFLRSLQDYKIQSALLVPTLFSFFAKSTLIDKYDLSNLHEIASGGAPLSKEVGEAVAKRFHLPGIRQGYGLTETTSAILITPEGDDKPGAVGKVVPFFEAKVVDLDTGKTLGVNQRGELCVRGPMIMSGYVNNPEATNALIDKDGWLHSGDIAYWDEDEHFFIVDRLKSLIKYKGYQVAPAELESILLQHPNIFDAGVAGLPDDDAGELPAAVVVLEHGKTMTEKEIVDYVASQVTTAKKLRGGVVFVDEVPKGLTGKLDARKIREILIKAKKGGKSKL

`Cc1ccccc1CCNC(=O)c1ccc2c(c1)nc1n2CCCCC1` [NCGC00133334-01]: the IC50 turned out to be 0.881 µM.

Turning to `COc1ccc(C(=O)NC2CCCN(c3cc(-c4ccc(F)cc4)n[nH]3)C2)cc1OC` (stereo not shown) [NCGC00437488-01], the IC50 turned out to be 11.1 µM.

In the case of `Cc1cc(C)n(CCC(=O)N2CCC(Cc3noc(C4CC4)n3)C2)n1` (stereo not shown) [NCGC00443208-01], the IC50 was > 30 µM.

For the compound `Cc1ccc(N2CCN(c3nc(C(=O)O)cs3)CC2)cc1` [NCGC00432723-01], the IC50 amounted to 1.97 µM.

As for `CC(C)Oc1cccc(-c2cccc(COc3ccc4c(cnn4CC[S+](C)(=O)[O-])c3)c2)c1` [NCGC00418050-01], the IC50 is 11.1 µM.

Turning to `O=C(Nc1cc(-c2nc3ccccc3s2)ccc1Cl)c1cc2ccccc2o1` [NCGC00098905-01], the IC50 is > 30 µM.

Regarding `Cc1ccc(/C=C/C(=O)N2CCC(c3nc4ccccc4o3)CC2)cc1` [NCGC00118334-01], the IC50 came out at 11.1 µM.

In the case of `Cc1ccc(-n2nc(C)c([C@H]3C=C[C@@H](O)C3)c2C)cc1Cl` [NCGC00394636-01], the IC50 was determined as 12.8 µM.

Consider `CC(=O)Nc1ccc(NC(=O)CCCc2nc(-c3ccc(C(C)(C)C)cc3)no2)cc1` [NCGC00116112-01], for which the IC50 is 4.95 µM.

For `C[C@@H]1CN(c2nc(-c3ccccc3)no2)CC[C@@]1(O)C1CCC1` [NCGC00439928-01], the IC50 was found to be 1.76 µM.

Turning to `O=C(O)c1ccc(-c2noc(-c3ccc(C(F)(F)F)cc3)n2)cc1` [NCGC00168758-01], the IC50 came out at 0.313 µM.

As to `CCN1c2cc(C(=O)Nc3ccc(N(C)C)cc3)ccc2C(=O)N2CCCCC21` (stereo not shown) [NCGC00452497-01], the IC50 was found to be 12.4 µM.

As to `N#Cc1c(-n2ncnc2-c2cccc(Cl)c2)sc2c1CCCCC2` [NCGC00099368-01], the IC50 was 1.97 µM.

For the compound `COc1ccc(NC(=O)/C(C#N)=C/c2ccc(C)o2)cc1` [NCGC00099040-01], the IC50 was 6.24 µM.

Regarding `Cc1ccc(NC(=O)N2CCC(CCNC(=O)C3CC3)CC2)cc1` [NCGC00424850-01], the IC50 was determined as 11.1 µM.

On to `Cc1nc2cc(-c3cccc(F)c3)nn2c(C)c1CCC(=O)NC1CCCCC1` [NCGC00110095-01], for which the IC50 came to 8.81 µM.

Consider `COc1ccccc1-c1cc2nc(C)c(CCC(=O)O)c(C)n2n1` [NCGC00108411-01], for which the IC50 turned out to be 12.4 µM.

For `Fc1ccc(NCc2ccccc2-c2nnc(-c3ccccc3Cl)o2)cc1Cl` [NCGC00107402-01], the IC50 turned out to be 15.7 µM.

In the case of `CC(C)c1noc(-c2nc(-c3ccc4c(c3)OCO4)no2)n1` [NCGC00450061-01], the IC50 amounted to 7.85 µM.

In the case of `COc1ccc(/C=C/c2ccc3c(c2)C(=O)N2CC[C@H](NC(=O)COCC(=O)O)[C@H]2C(=O)N3)cc1` [NCGC00421238-01], the IC50 came out at 9.89 µM.

Take `Cc1cn2nc(C(=O)Nc3ccc(N(C)C)cc3)cc2c(N2CCCC2)n1` [NCGC00454051-01]: the IC50 turned out to be 11.1 µM.

With `Cc1ccc(C(=O)Nc2ccc(-c3nc4ccccc4s3)c(O)c2)cc1` [NCGC00594710-01], the IC50 is > 30 µM.

On to `Oc1cccc(-c2cc3c(cn2)CN(Cc2cccnc2)CCN3)c1` [NCGC00411023-01], for which the IC50 was found to be 22.7 µM.

In the case of `COC(=O)c1ccc2c(c1)C(=Cc1cc(Br)c(O)c(Br)c1)C(=O)N2` [NCGC00242004-02], the IC50 is 9.89 µM.

For `Fc1ccc(-n2ncc3c(N4CCCCC4)nc(NN4CCOCC4)nc32)cc1` [NCGC00652353-01], the IC50 is > 30 µM.

Consider `CCc1ccc(CNC(=O)C2CCCN(c3nn4cc(-c5ccc(F)cc5)nc4s3)C2)cc1` (stereo not shown) [NCGC00123722-01], for which the IC50 was > 30 µM.

Take `COc1ccc(OC)c(CN2CCOc3ccc(C(=O)NCc4ccc(C)cc4)cc3C2)c1` [NCGC00426332-01]: the IC50 is > 30 µM.

With `CC(=O)N[C@@H]1C=C[C@@H](c2c(C)nn(-c3ccc(C(C)(C)C)cc3)c2C)C1` [NCGC00397882-01], the IC50 was 18 µM.

As to `C[S+](=O)([O-])CCn1ncc2cc(OCc3cccc(-c4ccccc4)c3)ccc21` [NCGC00418095-01], the IC50 is 6.4 µM.

In the case of `CCOc1ccc(-c2cc3c(=O)n(CCNC(=O)c4cccc(N(C)C)c4)ccn3n2)cc1` [NCGC00456949-01], the IC50 is 3.94 µM.

`CCCc1ccc(-c2nc(C3CCOC3)no2)cc1` (stereo not shown) [NCGC00445403-01]: the IC50 is 7 µM.

Take `COc1ccc(-c2ncc3c(n2)OCCN(CC2CC2)C3=O)cc1` [NCGC00413552-01]: the IC50 stood at 8.05 µM.

Turning to `O=C(Nc1cccc(-c2nc3ccccc3[nH]2)c1)c1ccccc1F` [NCGC00099429-01], the IC50 is 14 µM.

In the case of `FC(F)(F)c1cc(-c2nc3ccccc3s2)cc(C(F)(F)F)c1` [NCGC00167627-01], the IC50 is 12.4 µM.

As to `CCOC(=O)c1cc(-c2ccccc2)nn1Cc1ccccc1` [NCGC00108381-01], the IC50 is > 30 µM.

In the case of `c1ccc(Nc2cc3c(cn2)CN(Cc2cc[nH]n2)CCN3)cc1` [NCGC00411115-01], the IC50 came out at 16.1 µM.

In the case of `CN(C)C1CCN(c2ccc(-c3nc(CCCc4ccccc4)no3)cn2)CC1` [NCGC00437613-01], the IC50 was > 30 µM.

On to `Cc1cnc(CC2CCCN(C(=O)CCc3c[nH]c4ccccc34)C2)n1C(C)C` (stereo not shown) [NCGC00469687-01], for which the IC50 was > 30 µM.

`O=C(NCCC1CCN(C(=O)Nc2cc(F)cc(F)c2)CC1)c1ccc(F)cc1` [NCGC00425011-01]: the IC50 was > 30 µM.

`O=C(c1cc(-c2ccc(F)cc2)nc2ccccc12)N1CCC(Cc2nncn2CC2CC2)CC1` [NCGC00456245-01]: the IC50 came out at 8.81 µM.

Regarding `Cc1ccc(NC(=O)c2ncn(-c3ccccc3)n2)cc1Cl` [NCGC00107303-01], the IC50 worked out at 4.95 µM.

For the compound `COc1ccc2cc(-c3nc4ccc(C(=O)O)cc4[nH]3)c(=O)oc2c1` [NCGC00138156-01], the IC50 came to 0.0157 µM.

For the compound `Nc1nc2c(ncn2COCCO)c(=O)[nH]1` [NCGC00015061-13], the IC50 was > 30 µM.

`CN(C)C1CCN(c2ncnc3c2cnn3-c2ccccc2)CC1` [NCGC00608115-01]: the IC50 was > 30 µM.

On to `COc1ccc2oc(=O)c(C(=O)Nc3cccc(C(=O)O)c3)cc2c1` [NCGC00100698-01], for which the IC50 turned out to be 0.0157 µM.

As to `Cc1ccc(Cl)cc1-n1nnc(-c2nsc(NC(=O)c3ccccc3Cl)n2)c1C` [NCGC00105211-01], the IC50 is > 30 µM.

`CC(C)c1ccc(NC(=O)c2ccc(CN3C(=O)NC4(CCOCC4)C3=O)cc2)cc1` [NCGC00454608-01]: the IC50 is 3.51 µM.

Regarding `Fc1cccc(Nc2nc(-c3ccccc3)no2)c1` [NCGC00422294-01], the IC50 was determined as 7 µM.

Regarding `COc1ccc(-c2noc(N3CCc4ccccc43)n2)cc1` [NCGC00422328-01], the IC50 was 3.13 µM.

With `COc1cccc2cc(C(=O)Nc3ccc(CC(=O)O)cc3)c(=O)oc12` [NCGC00102789-01], the IC50 worked out at 3.13 µM.

For the compound `CC(C)(Oc1ccc(-c2nc3cc(Cl)ccc3s2)cc1)C(=O)O` [NCGC00386771-01], the IC50 came to 8.81 µM.

Take `Cc1ccc(NC(=O)c2ccc(CN3C(=O)NC4(CCOCC4)C3=O)cc2)cc1C` [NCGC00454605-01]: the IC50 came out at 11.1 µM.

For `CCC(CC)c1nn2cc(-c3ccccc3)nc2s1` [NCGC00117460-01], the IC50 was found to be 0.881 µM.

On to `COCCN1CCNc2cc(-c3cccc(OC)c3)ncc2C1` [NCGC00411013-01], for which the IC50 was found to be 20.2 µM.

Regarding `COc1ccc(-c2cc3c(cn2)CN(Cc2ccncc2)CCN3)cc1` [NCGC00411159-01], the IC50 came to 16.1 µM.

Regarding `COC(=O)[C@@H]1C[C@H](NC(=O)c2ccc(Oc3ccccc3)cc2)CN1C` [NCGC00433761-01], the IC50 amounted to 15.7 µM.

Take `CC(C)(C)c1ccc(C(=O)Nc2ccc([C@H]3OCC(=O)N[C@@H]3CO)cc2)cc1` [NCGC00396656-01]: the IC50 is 16.1 µM.

In the case of `CCNc1cc(N2CCC(CCC(=O)O)CC2)ncn1` [NCGC00432807-01], the IC50 stood at 5.56 µM.

On to `O=C(c1ccc(C(F)(F)F)cc1)N1CCc2nc(-c3ccccc3)nc(-c3ccc(Cl)cc3)c2C1` [NCGC00480461-01], for which the IC50 was > 30 µM.

Regarding `CCSc1ccccc1C(=O)Nc1ccc(-c2nc3ccccc3s2)c(O)c1` [NCGC00134162-01], the IC50 was > 30 µM.

For `CN1c2cc(C(=O)Nc3cc(F)ccc3F)ccc2C(=O)N2CCCCCC21` (stereo not shown) [NCGC00452248-01], the IC50 is 12.4 µM.

On to `O=C(Nc1ccc(-c2nc3ccccc3s2)c(O)c1)c1ccccc1F` [NCGC00594666-01], for which the IC50 is > 30 µM.

With `Cc1ccc(-c2cc3c(=O)n(CCNC(=O)c4cccc5[nH]ccc45)ccn3n2)cc1C` [NCGC00457046-01], the IC50 was 7.85 µM.

As for `CC(C)n1cc2cc(C(=O)Nc3ccc4c(c3)OCCO4)sc2c1` [NCGC00470606-01], the IC50 turned out to be 9.89 µM.

With `COc1ccccc1OC1(C(=O)O)CCN(c2ncnc3[nH]cnc23)CC1` [NCGC00436727-01], the IC50 is > 30 µM.

`COCCN1CCC2(C1)CN(C)c1ccc(C(=O)Nc3ccccc3)cc12` (stereo not shown) [NCGC00419345-01]: the IC50 turned out to be 1.14 µM.

Consider `CN(C)c1ccc(-c2nc3ccccn3c2Nc2ccc3c(c2)OCCO3)cc1` [NCGC00106568-01], for which the IC50 was determined as 11.1 µM.
